Patent US9051306B2, “Indirubin derivative having highly selective cytotoxicity for malignant tumors” (NIHON UNIVERSITY, priority 2011, dated 2015)
“Also recorded” adds a separate entry of the source. Like-named read-outs stand apart in the source and are kept apart here.

Tests used:
[1] = test system: human neuroblastoma cells IMR-32; assay: Antitumor activity, MTT method, IMR-32; assay type: cell-based
Method: (§1) Antitumor activity was determined by the MTT (3-(4,5-dimethylthiazol-2-yl)-2,5-diphenyltetrazolium bromide) method.
(§2) One hundred μL of a suspension of tumor cells in an RPMI 1640 medium was seeded into a 96-well plate (1×10^4 cells/well) and cultured for 24 hours (5% CO2, 37° C., saturated humidity conditions). Subsequently, the test compound (final concentration of from 1×10^−5 to 1×10^−8 M) and DMSO as a control were each added in an amount of 0.2 μL and allowed to act on the tumor cells for 48 hours. Subsequently, 10 μL of a 0.5% MTT solution was added. After 3 hours, 100 μL of a reaction terminating solution (0.04 N HCl/isopropanol) was added to terminate the reaction. After thorough pipetting, the absorbance was measured at 570 nm (top) and 655 nm (bottom) using a microplate reader. The cell survival rate for each sample at each concentration was calculated as a percentage to the control group, and IC50 values were determined from the data. The tumor cells used were human neuroblastoma cells IMR-32, SK-N-SH, LA-N-1, and NB-39 and human liver cancer cells HepG-2. Non-tumor cells: normal human dermal fibroblasts (NHDF) and human umbilical vein endothelial cells (HUVEC) were also used.

[2] = test system: human neuroblastoma cells SK-N-SH; assay: Antitumor activity, MTT method, SK-N-SH; assay type: cell-based
Method: as §1, §2

[3] = test system: human neuroblastoma cells NB-39; assay: Antitumor activity, MTT method, NB-39; assay type: cell-based
Method: as §1, §2

[4] = test system: human neuroblastoma cells LA-N-1; assay: Antitumor activity, MTT method, LA-N-1; assay type: cell-based
Method: as §1, §2

[5] = test system: human liver cancer cells HepG-2; assay: Antitumor activity, MTT method, HepG-2; assay type: cell-based
Method: as §1, §2

[6] = test system: normal human dermal fibroblasts (NHDF); assay: Cytotoxicity, MTT method, NHDF non-tumor cells; assay type: cell-based
Method: as §1, §2

[7] = test system: human umbilical vein endothelial cells (HUVEC); assay: Cytotoxicity, MTT method, HUVEC non-tumor cells; assay type: cell-based
Method: as §1, §2

[8] = test system: human liver cancer cell line HepG2; assay: Antitumor activity (2), Alamar Blue cell survival; assay type: cell-based; settings: 24 hours, read-out: cytotoxic activity (IC50: 50% inhibitory concentration)
Method: Fetal bovine serum (FBS) was added at a final concentration of 10% to dulbecco's modified eagle's medium (DMEM, Sigma-Aldrich), and a penicillin-streptomycin solution (GIBCO) was further added at a concentration of 0.1 mg/mL.
An Alamar Blue solution manufactured by Wako Pure Chemical Industries, Ltd. was used.
One hundred μL aliquot of a suspension of human liver cancer cell line HepG2 cells in DMEM medium (1.0×10^5 cells/mL) was dispensed into a 96-well culture plate. The cells were allowed to adhere to the plate by being cultured at 37° C. in 5% CO2 under saturated humidity conditions. After culture for 24 hours, the medium was removed by suction, and 100 μL of a test compound-containing medium (containing 1% DMSO) was added. The cells were cultured at 37° C. in 5% CO2 under saturated humidity conditions. After culture for 24 hours, the medium was removed by suction, and the cells were washed with phosphate buffered saline (PBS). The Alamar Blue reagent solution (100 μL) diluted 10 times with the medium was added to each well, and the cells were cultured under the same conditions. After 1 hour, the fluorescence intensity was measured at an excitation wavelength of 577 nm and a detection wavelength of 612 nm. When the cell survival rate was calculated, the value for the well added with the vehicle (containing 1% DMSO) was normalized as 100%.

IMR-32 cells = assay: Ability to induce apoptosis, Hoechst 33342 staining method; assay type: cell-based, human
Method: The ability to induce apoptosis was examined using nuclear staining by the Hoechst 33342 staining method.
Two mL of a suspension of cells (IMR-32) in an RPMI 1640 medium was seeded into a 6-well plate (1×10^5 cells/well) and cultured for 24 hours (under 5% CO2, 37° C., and saturated humidity conditions). Subsequently, the test compound (final concentration of from 1×10^−5 M to 1×10^−7 M) and DMSO as a control were each added in an amount of 4 μL and allowed to act on the cells for 24 hours. Subsequently, 100 μL of a 0.02% Hoechst 33342 solution was added. After 15 minutes, phase-contrast images and fluorescence images of the cells were taken with a fluorescence microscope to observe changes in cell morphology.

[9] = test system: human neuroblastoma IMR-32 cells; assay: Ability to induce apoptosis, flow cytometry (Annexin V-FITC/PI); assay type: cell-based; settings: 24 hours
Method: Flow cytometry was used to detect whether the compound (HS-2) of the present invention had the ability to induce apoptosis of human neuroblastoma IMR-32 cells. Specifically, 2 mL of a suspension of cells (IMR-32) in an RPMI 1640 medium was seeded into a 6-well plate (1×10^6 cells/well) and cultured for 24 hours (under 5% CO2, 37° C., and saturated humidity conditions). Subsequently, the compound (HS-2) was added at a final concentration of from 1×10^−5 M to 1×10^−7 M and incubated under 37° C. and 5% CO2 conditions for 24 hours. The cells were detached with trypsin and washed with PBS. Annexin V-FITC and propidium iodide (PI) were then added to the cells to carry out flow cytometry. In this technique, only Annexin V-FITC fluorescence is observed from cells in the early apoptosis phase, and both Annexin V fluorescence and PI fluorescence are observed from cells in the late apoptosis phase.

tumor cells = assay: Antitumor activity, MTT method, overall statement on tumor cells; assay type: cell-based, human; settings: from FIG. 1 and Table 1
Method: as §1, §2

Compound `[NH2][Pt]([NH2])([Cl])[Cl]` [CDDP, cisplatin, reference compound] has an IC50 ([1]; IMR-32, MTT, 48 hours, read-out: IC50) of 28200 nM, an IC50 ([2]; MTT, 48 hours, read-out: IC50) of 12100 nM and an IC50 ([3]; NB-39, MTT, 48 hours, read-out: IC50) of 2040 nM. The IC50 ([4]; LA-N-1, MTT, 48 hours, read-out: IC50) was 1630 nM, the IC50 ([5]; HepG-2, Table 1, read-out: IC50) was 10000 nM and the IC50 ([6]; NHDF normal cells, MTT, 48 hours, read-out: IC50) was greater than 100000 nM. For the same compound, the IC50 ([7]; HUVEC normal cells, MTT, 48 hours, read-out: IC50) was 69800 nM and the IC50 [8] was 10000 nM.
With `O=C1Nc2ccccc2/C1=C1/Nc2ccccc2/C1=N\OCC1CO1` (stereo not drawn) [HS-2, indirubin-3′-(O-oxiran-2-ylmethyl)oxime] the IC50 ([1]; Homo sapiens, IMR-32, 48 h) was 329 nM, the IC50 ([2]; Homo sapiens, 48 h) was 325 nM and the IC50 ([3]; Homo sapiens, NB39, 48 h) was 550 nM. It also gave an IC50 ([4]; Homo sapiens, LAN1, 48 h) of 139 nM, an IC50 ([5]; Homo sapiens, HepG2) of 1000 nM and an IC50 ([6]; Homo sapiens, NHDF, 48 h) of 61400 nM. For the same compound, the IC50 ([7]; Homo sapiens, HUVEC, 48 h) was 1750 nM, the IC50 ([8]; Homo sapiens) was 1000 nM and the “apoptosis of IMR-32 neuroblastoma cells” value (IMR-32 cells; FIG. 2 legend) was “induced apoptosis”. The “nuclear morphology (Hoechst 33342 staining)” value (IMR-32 cells; IMR-32, 0.1 μM, 24 hours, FIG. 2) was “induced nuclear aggregation and fragmentation”, the apoptosis-inducing effect ([9]; IMR-32, 10 μM) was “significant apoptosis-inducing effect” and the “ability to induce apoptosis” value ([9]; IMR-32, 1×10^−5 M to 1×10^−7 M, FIG. 3) was “induced apoptosis; also recorded: concentration-dependent ability to induce apoptosis”. The “antitumor activity relative to cisplatin (CDDP)” value (tumor cells) was 50 to 100 times.
